Assay results from patent US11945806B2, “Stabilization of amyloidogenic immunoglobulin light chains” (The Scripps Research Institute, priority 2019, dated 2024).
One block for each molecule: values may come before it.

Legend:
WIL-FL* [1] = assay: FP artefact counterscreen (compounds added after 24 h of proteinase K treatment); assay type: biochemical, human; design: concentration or dose not given beside the values; settings: compound added after 24 h PK treatment; mean ± sd, n=3
Method: Secondly, to remove compounds that interfere with the FP measurement, the primary screen was repeated in triplicate but compounds were added after 24 h of proteinase K treatment (FIG. 1f). […] Bona fide hits should retain no FP beyond the low control.

WIL-FL* [2] = biological target: T1, WIL-FL* (Homo sapiens, UniProt P01721, K101C, form not given); assay: PCFP assay with thermolysin; settings: mean ± sd, n=3; 6.75 μM compound
WIL-FL* [3] = biological target: T1, WIL-FL*; assay: Protease-coupled fluorescence polarization (PCFP) assay with proteinase K; settings: for EC50: from dose response curves measured during the screening process
WIL-FL [4] = biological target: T2, WIL-FL (Homo sapiens, UniProt P01721); assay: PK proteolysis of unlabeled WIL-FL by SDS-PAGE; settings: WIL-FL 10 μM, small molecule 100 μM, t=2 h
Method: The experiment in FIG. 1b measured simultaneous proteolysis of labeled and unlabeled LC by adding 20 nM WIL-FL* or JTO-FL* to 5 μM WIL-FL or JTO-FL, respectively. Fluorescein fluorescence images of the SDS-PAGE gels were recorded, after which the gels were Coomassie stained and imaged.

WIL-FL [5] = biological target: T2, WIL-FL; assay: Kinetic unfolding in urea; assay type: biochemical; settings: 5 at 50 μM, WIL-FL 5 μM; 3.57 s^−1 for WIL-FL alone
Method: Kinetic unfolding. WIL-FL (5 μM) in 50 mM sodium phosphate buffer, pH 7.0, containing 50 μM 5 was rapidly diluted into urea in 50 mM sodium phosphate buffer and 50 μM 5 using an APP SX-20 stopped flow fluorimeter at 37° C. The change in fluorescence emission >335 nm was measured as a function of time (λex=280 nm). […] Kinetic transients were fitted to single exponential curves and rates extracted.

WIL-FL [6] = biological target: T2, WIL-FL; assay: Equilibrium unfolding, urea titration; assay type: biochemical; settings: 1 at 100 μM or 5 at 50 μM, WIL-FL 5 μM; 1.4 M without ligand
Method: Equilibrium unfolding. WIL-FL (5 μM) was titrated against urea in 50 mM sodium phosphate buffer, pH 7.0, containing 50 μM 5 or 100 μM 1. After incubation overnight at 25° C., intrinsic tryptophan fluorescence emission spectra were measured using a Jasco 8600 fluorimeter (μex=280 nm, μem=300-420 nm). Average wavelength (also known as center of spectral mass) values were calculated using the equation: […]
λi and Ii are the are the wavelength and intensity at i, respectively. Average wavelength data were normalized for comparison. […] Midpoint urea concentrations were calculated by fitting the titration data to a 2-state unfolding equation: […]
x is the urea concentration (M), G is the free energy of unfolding (kJ mol^−1), m is the denaturant dependence of the unfolding reaction (kJ mol^−1 M^−1), R is the ideal gas constant, T is the temperature in K, a and c are the fluorescence of the folded and unfolded states, and b and d are the denaturant dependence of the fluorescence of the folded and unfolded states, respectively.

[7] = secondary screen, mean ± sd, n=3, 6.75 μM compound, FP retention after 24 h at 22° C., normalized to high and low controls

SMILES: CC(C)CC1NC(=O)N(CC(=O)Nc2ccc(C(F)(F)F)cc2)C1=O (racemic) [Compound 8]
Counterscreen activity (%) (WIL-FL* [1]): −2.05 ± 2.9%
Thermolysin activity (%) (WIL-FL* [2]): 50.8 ± 1.7%
EC50 (WIL-FL* [3]): 7.36 µM
PK activity (%) (WIL-FL* [3]; [7]): 48.0 ± 2.4%

SMILES: Cc1cc(=O)oc2cc(OC(C)c3ccccc3)ccc12 (centres unmarked) [Compound 3]
Counterscreen activity (%) (WIL-FL* [1]): −2.52 ± 5.8%
Thermolysin activity (%) (WIL-FL* [2]): 38.7 ± 3.7%
PK activity (%) (WIL-FL* [3]; [7]): 43.3 ± 1.5%

SMILES: CC1CCCCC12NC(=O)N(CC(=O)Nc1ccc(C(F)(F)F)cc1)C2=O (centres unmarked) [Compound 7]
Counterscreen activity (%) (WIL-FL* [1]): 2.51 ± 4.7%
Thermolysin activity (%) (WIL-FL* [2]): 26.3 ± 1.7%
EC50 (WIL-FL* [3]): 5.87 µM
PK activity (%) (WIL-FL* [3]; [7]): 29.3 ± 2.5%

SMILES: CC(Oc1ccc(/C=C(\C#N)C(N)=O)cc1)c1ccccc1 (centres unmarked) [Compound 4]
Counterscreen activity (%) (WIL-FL* [1]): −7.4 ± 4.0%
Thermolysin activity (%) (WIL-FL* [2]): 40.4 ± 1.2%
EC50 (WIL-FL* [3]): 6.33 µM
PK activity (%) (WIL-FL* [3]; [7]): 48.9 ± 2.6%

SMILES: CCOC(=O)Cc1c(C)c2ccc(N(CC)CC)cc2oc1=O [Compound 2]
Counterscreen activity (%) (WIL-FL* [1]): −4.13 ± 5.2%
Thermolysin activity (%) (WIL-FL* [2]): 33.8 ± 3.1%
EC50 (WIL-FL* [3]): 6.92 µM
PK activity (%) (WIL-FL* [3]; [7]): 37.8 ± 1.4%

SMILES: CC(C=NNc1ccc(S(N)(=O)=O)cc1[N+](=O)[O-])c1ccccc1 (centres unmarked) [Compound 6]
Thermolysin activity (%) (WIL-FL* [2]): 45.1 ± 6.6%
EC50 (WIL-FL* [3]): 4.92 µM
PK activity (%) (WIL-FL* [3]; [7]): 60.8 ± 2.7%

SMILES: Cc1cc(O)nc(N/N=C/C=C/c2ccccc2[N+](=O)[O-])n1 [Compound 5]
unfolding rate constant (extrapolated to the absence of denaturant) (WIL-FL [5]): 2.43 s⁻¹
Counterscreen activity (%) (WIL-FL* [1]): 8.04 ± 2.6%
Thermolysin activity (%) (WIL-FL* [2]): 61.1 ± 5.0%
EC50 (WIL-FL* [3]): 5.51 µM
PK activity (%) (WIL-FL* [3]; [7]): 65.2 ± 2.8%
midpoint concentration of urea required to unfold the FL LC (WIL-FL [6]): 2.0 M

The next lines start with results.

Counterscreen activity (%) (WIL-FL* [1]): 0.94 ± 3.9%
Thermolysin activity (%) (WIL-FL* [2]): 45.7 ± 7.0%
EC50 (WIL-FL* [3]): 4.18 µM
PK activity (%) (WIL-FL* [3]; [7]): 58.7 ± 2.0%
SMILES: CCN(CC)c1ccc2c(C)c(I)c(=O)oc2c1 [Compound 11]

Counterscreen activity (%) (WIL-FL* [1]): −4.10 ± 1.5%
Thermolysin activity (%) (WIL-FL* [2]): 23.3 ± 8.5%
EC50 (WIL-FL* [3]): 9.15 µM
PK activity (%) (WIL-FL* [3]; [7]): 4.21 ± 4.4%
SMILES: CCN(CC)c1ccc2c(CN3CCOCC3)cc(=O)oc2c1 [Compound 13]

Counterscreen activity (%) (WIL-FL* [1]): −3.09 ± 3.0%
Thermolysin activity (%) (WIL-FL* [2]): 29.1 ± 0.3%
EC50 (WIL-FL* [3]): 6.73 µM
PK activity (%) (WIL-FL* [3]; [7]): 50.5 ± 5.3%
SMILES: CN(C)c1ccc(C2OCC(Cl)([N+](=O)O)CO2)cc1 (centres unmarked) [Compound 16]

Counterscreen activity (%) (WIL-FL* [1]): −3.45 ± 3.89%
Thermolysin activity (%) (WIL-FL* [2]): 27.1 ± 1.3%
EC50 (WIL-FL* [3]): 7.9 µM
PK activity (%) (WIL-FL* [3]; [7]): 37.9 ± 1.1%
SMILES: CCN(CC)c1ccc2ccc(=O)oc2c1 [Compound 9]
protection of WIL-FL against PK proteolysis (WIL-FL [4]): stabilizes WIL-FL, but is less efficacious than 1

Counterscreen activity (%) (WIL-FL* [1]): 0.41 ± 2.5%
Thermolysin activity (%) (WIL-FL* [2]): 30.2 ± 4.2%
EC50 (WIL-FL* [3]): 11.3 µM
PK activity (%) (WIL-FL* [3]; [7]): 37.2 ± 7.3%
SMILES: CCN(CC)c1ccc2c(C)c(CN3CCOCC3)c(=O)oc2c1 [Compound 12]

Counterscreen activity (%) (WIL-FL* [1]): −1.54 ± 2.4%
Thermolysin activity (%) (WIL-FL* [2]): 55.5 ± 3.3%
EC50 (WIL-FL* [3]): 4 µM
PK activity (%) (WIL-FL* [3]; [7]): 48.0 ± 3.8%
SMILES: CCN(CC)c1ccc2c(C)c(Cl)c(=O)oc2c1 [Compound 10]

PK activity (%) (WIL-FL* [3]; 10 μM in pilot screen, n=1): 58.1 (10 μM in pilot screen) %
EC50 (WIL-FL* [3]): 18.5 µM
SMILES: CC(=O)c1ccn(S(=O)(=O)c2ccccc2)c1 [Compound 17]

Counterscreen activity (%) (WIL-FL* [1]): −4.35 ± 5.6%
Thermolysin activity (%) (WIL-FL* [2]): 18.3 ± 4.9%
EC50 (WIL-FL* [3]): 9.28 µM
PK activity (%) (WIL-FL* [3]; [7]): 34.2 ± 3.0%
SMILES: CC(Oc1ccc2ccc(=O)oc2c1)c1ccccc1 (centres unmarked) [Compound 15]

Counterscreen activity (%) (WIL-FL* [1]): 1.67 ± 4.7%
Thermolysin activity (%) (WIL-FL* [2]): 34.8 ± 3.1%
EC50 (WIL-FL* [3]): 9.04 µM
PK activity (%) (WIL-FL* [3]; [7]): 41.9 ± 3.0%
SMILES: CCN(CC)c1ccc2c(C)c(CC(C)=O)c(=O)oc2c1 [Compound 14]

PK activity (%) (WIL-FL* [3]; 10 μM in pilot screen, n=1): 46.5 (10 μM in pilot screen) %
EC50 (WIL-FL* [3]): 18 µM
SMILES: CC(=O)c1ccc(S(=O)(=O)c2ccccc2)cc1 [Compound 18]
